From paper PMC7782499, “Progerinin, an optimized progerin-lamin A binding inhibitor, ameliorates premature senescence phenotypes of Hutchinson-Gilford progeria syndrome” (Communications Biology, 2021) come the findings set out here.

Several values for one entry are separate records, joined by “and”; a condition that tells them apart may be missing. Identical values can stand only once. Like-named read-outs stand apart in the source and are kept apart here.

The bioavailability is the share of a dose that reaches the circulation, judged against a reference dose that is usually intravenous. As a reminder, the Cmax is the maximum level reached in the sampled fluid or tissue. A word on the Tmax: it is the time from dosing to the highest level. By share remaining is commonly meant the share of the starting amount still present when the sample was taken.

A short description of data set [1]: In vivo pharmacokinetic (PK) analysis, intravenous and oral. On the set-up: species or system rats. Conditions: for bioavailability: read-out: Bioavailability (BA). How it is done: A. In vivo pharmacokinetic (PK) analysis of JH010 (performed in rats). […] B Effect of SLC-D011 on human ERG (hERG). […] C In vivo pharmacokinetic analysis of SLD-D011. […] HEK293 cells transiently transfected with GFP-PG vectors were treated with SLC-D011 for 24 hr (n = 3 independent experiment; two-tailed Student’s t test). […] “Con” means dimethyl sulfoxide (DMSO)-treated control.
(§1) At pre-set time-points, blood concentration of JH4 was determined by LC-MS/MS analysis[22],[23]. Other chemicals were also tested using similar protocol. In vitro ADME studies (plasma protein binding, CYP inhibition, microsomal stability, plasma stability, and hERG inhibition) were performed by New Drug Development Center (Daegu, Korea) using standard protocols[24],[25].

The nature of data set [2]: Liver microsomal stability, human. It counts as in vitro ADME. Conditions: liver microsomes, read-out: Liver microsomal stability (% remaining during 30min). Here is the method:
as §1

The target in another data set is CYP2C19 (Homo sapiens, UniProt P33261). As to the kind of experiment: CYP inhibition, CYP2C19. It counts as in vitro ADME. Here is the method: For PK analysis, 5 mg/kg of JH4 in 10% DMSO, 5% […] solution were intravenously injected and 10 mg/kg of JH4 in 10% NMP and 90% PEG400 solution were orally delivered. At pre-set time-points, blood concentration of JH4 was determined by LC-MS/MS analysis[22],[23]. Other chemicals were also tested using similar protocol. In vitro ADME studies (plasma protein binding, CYP inhibition, microsomal stability, plasma stability, and hERG inhibition) were performed by New Drug Development Center (Daegu, Korea) using standard protocols[24],[25].
CYP2C19, sequence (P33261 whole entry): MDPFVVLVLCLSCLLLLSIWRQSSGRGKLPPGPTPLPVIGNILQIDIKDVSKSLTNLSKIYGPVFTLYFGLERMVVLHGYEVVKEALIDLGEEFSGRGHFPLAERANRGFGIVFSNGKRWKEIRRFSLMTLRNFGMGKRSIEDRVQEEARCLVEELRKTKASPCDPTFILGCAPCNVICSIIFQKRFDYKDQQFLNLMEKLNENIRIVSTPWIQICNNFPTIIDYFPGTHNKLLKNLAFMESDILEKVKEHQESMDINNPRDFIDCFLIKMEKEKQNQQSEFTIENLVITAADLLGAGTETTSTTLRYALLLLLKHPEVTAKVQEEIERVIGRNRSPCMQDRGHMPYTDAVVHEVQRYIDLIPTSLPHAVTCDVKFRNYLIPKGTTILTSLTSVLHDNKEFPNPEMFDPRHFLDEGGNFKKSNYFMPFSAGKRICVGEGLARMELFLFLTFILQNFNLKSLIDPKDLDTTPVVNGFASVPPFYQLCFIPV

The subject of data set [3] is normal fibroblasts and HGPS cells. As to the kind of experiment: Long-term treatment cell viability (MTT assay) in normal fibroblasts and HGPS cells. The data set is classed as cell-based. How it is done:
To determine the cellular viability, cells were treated with lonafarnib or SLC-D011 for 2 weeks. For MTT assay, cells were incubated with 0.5 mg/ml of 3-(4,5-dimethythiazol-2-yl)-2,5-diphenyl tetrazolium bromide (MTT) solution for 6 hr at 37 °C. After removing MTT solution, the precipitated materials were dissolved in […] DMSO and quantified by measuring the absorbance at 540 nm.
Fig. S12. […] A. SLC-D011, compar ed to lonafarnib, reduces exogenous progerin expression in HEK293 cells. B. Long- t e r m treatment (treated with 2μM ever y ot her day for 2 weeks) with lonafarnib or SLC-D011 was performed for normal fibroblasts and HGPS cells. […]
to determine the cellular viability after treatment with lonafarnib or SLC-D011 (n = 3 independent experiment; two-tailed Student’s t -test), **p < 0.001, *p < 0.05, N.S: not significant. […]
(Tetrazolium dyes change colour on reduction, which living cells bring about.)

As for `CC1(C)Oc2cc3oc(=O)ccc3cc2C[C@@H]1OC/C=C/c1ccccc1` [SLC-D011], the bioavailability in data set [1] (rat, blood, oral, 10 mg/kg) worked out at 58.1%; in data set [1] (rat, blood, oral 5 mg/kg), 65.9%. Also, the Cmax in data set [1] (rat, blood, oral 5mg/kg (n=3)) is 29.7 ng/mL. Moreover, the Tmax in data set [1] (rat, blood, oral 5mg/kg (n=3)) turned out to be 2.7 h. Also, the AUC in data set [1] (rat, blood, oral 5mg/kg (n=3), read-out: AUCall, Mean) turned out to be 144 ng·h/mL. In data set [2], the amount remaining at 0.5 h amounted to 21.5%. Besides, at CYP2C19, the CYP inhibition was 28.8. For the same compound, the Cell viability in data set [3] (AG03198, Ave) is 1.64 ratio; in data set [3] (AG03198, individual replicate) it was 1.6383 ratio and 1.687 ratio and 1.593 ratio; in data set [3] (AG11513, Ave), 1.362 ratio; in data set [3] (AG11513, individual replicate), 1.362 ratio and 1.373 ratio and 1.352 ratio; in data set [3] (N9, Ave) it was 2.552 ratio; in data set [3] (N9, individual replicate) it was 2.559 ratio and 2.546 ratio and 2.551 ratio.

As for `CC1(C)Oc2cc3oc(=O)ccc3cc2CC1OC(=O)C=Cc1cccnc1` (centres unmarked) [JH4], in data set [1] (intravenous 5mg/kg (n=3)), the “AUCINF_obs, Mean” value was 1.4 ng·h/mL; the “AUCall, Mean” value was determined as 1.3 ng·h/mL; the “MRTINF_obs, Mean” value was 0.2 h; the “T1/2, Mean” value stood at 6 min. Further, the “Vss_obs, Mean” value in data set [1] (intravenous 5mg/kg (n=3)) is recorded as 673.9 L/kg. The “Plasma concentration, Mean” value in data set [1] (intravenous 5mg/kg (n=3), 0.08 hr) came out at 4.7 ng/mL. Besides, the “Plasma concentration, Mean” value in data set [1] (intravenous 5mg/kg (n=3), 0.25 hr) is 1.5 ng/mL. Besides, the “Plasma concentration, Mean” value in data set [1] (intravenous 5mg/kg (n=3), 0.5 hr) is 0.6 ng/mL. Further, the “Half-life after in vivo oral administration” value in data set [1] (oral 10 mg/kg) is recorded as “extremely short”.

With `NC(=O)N1CCC(CC(=O)N2CCC([C@H]3c4ncc(Br)cc4CCc4cc(Cl)cc(Br)c43)CC2)CC1` [lonafarnib, reference compound], the “Cell death on long-term treatment” value in data set [3] (2μM every other day for 2 weeks) is “induced cell death in both normal fibroblasts and HGPS cells”. The Cell viability in data set [3] (AG03198, Ave) was 0.5027 ratio; in data set [3] (AG03198, individual replicate), 0.6483 ratio and 0.3112 ratio and 0.5484 ratio; in data set [3] (AG11513, Ave) it was 0.692 ratio; in data set [3] (AG11513, individual replicate), 0.6982 ratio and 0.6988 ratio and 0.6791 ratio; in data set [3] (N9, Ave), 1.642 ratio; in data set [3] (N9, individual replicate) it was 1.689 ratio and 1.546 ratio and 1.691 ratio.
